The results in this text go back to ChEMBL document CHEMBL3044820, “Evaluation of Benzenesulfonanilide Derivatives for the Control of Crucifers Clubroot” (1996).

Some results are limits rather than exact numbers.

What all share (assay type): functional
The subject of assay [1] is Plasmodiophora brassicae. Description: Fungicidal activity against clubroot disease causing Plasmodiophora brassicae infested Brassica campestris under greenhouse condition assessed as disease incidence at 4 kg a.i/ha treated to soil measured after 40 to 50 days.
In assay [2] the test system is Plasmodiophora brassicae. Description: Fungicidal activity against clubroot disease causing Plasmodiophora brassicae infested Brassica campestris under greenhouse condition assessed as disease incidence at 2 kg a.i/ha treated to soil measured after 40 to 50 days.
The test system of assay [3] is Plasmodiophora brassicae. Description: Fungicidal activity against clubroot disease causing Plasmodiophora brassicae infested Brassica campestris under greenhouse condition assessed as disease incidence at 0.5 kg a.i/ha treated to soil measured after 40 to 50 days.

Consider `Cc1ccc([N+](=O)[O-])cc1NS(=O)(=O)c1ccc(C)c([N+](=O)[O-])c1`, for which the Activity in the assay on Plasmodiophora brassicae [1] is 0%. As to `Cc1ccc(S(=O)(=O)Nc2ccc([N+](=O)[O-])cc2Cl)cc1`, the figures for the Activity in the assay with Plasmodiophora brassicae [1], in the assay with Plasmodiophora brassicae [2] and in the assay on Plasmodiophora brassicae [3] were greater than 91%, greater than 91% and 26%, respectively. As for `Cc1ccc(S(=O)(=O)Nc2ccc([N+](=O)[O-])cc2)cc1[N+](=O)[O-]`, the Activity in the assay on Plasmodiophora brassicae [1] is 26%; with Plasmodiophora brassicae [2], 0%. Turning to `Cc1ccc(S(=O)(=O)Nc2cccc([N+](=O)[O-])c2)cc1[N+](=O)[O-]`, the Activity with Plasmodiophora brassicae [1] turned out to be 0%. With `COc1ccc([N+](=O)[O-])cc1NS(=O)(=O)c1cccc([N+](=O)[O-])c1`, the Activity in the assay with Plasmodiophora brassicae [1] amounted to 0%. On to `O=[N+]([O-])c1ccc(NS(=O)(=O)c2ccc(Cl)c(C(F)(F)F)c2)c(Cl)c1` [FLUSULFAMIDE], for which the Activity with Plasmodiophora brassicae [1], in the assay on Plasmodiophora brassicae [2] and with Plasmodiophora brassicae [3] was greater than 91% throughout. Take `Cc1ccc(S(=O)(=O)Nc2ccc([N+](=O)[O-])cc2C)c(C)c1`: the Activity in the assay with Plasmodiophora brassicae [1] and with Plasmodiophora brassicae [2] was 0% throughout. As for `Cc1ccc(S(=O)(=O)Nc2ccc([N+](=O)[O-])cc2Cl)cc1[N+](=O)[O-]`, the Activity with Plasmodiophora brassicae [1] is given as greater than 91%; in the assay on Plasmodiophora brassicae [2] it was greater than 91%; with Plasmodiophora brassicae [3], 26%. Regarding `O=[N+]([O-])c1cc(Cl)c(NS(=O)(=O)c2ccc(Cl)cc2)c(Cl)c1`, the results for the Activity in the assay on Plasmodiophora brassicae [1], in the assay with Plasmodiophora brassicae [2] and with Plasmodiophora brassicae [3] were greater than 91%, greater than 91% and 0%, respectively.

On to `COC(=O)c1ccc(NS(=O)(=O)c2cccc(C(F)(F)F)c2)cc1`, for which the Activity in the assay with Plasmodiophora brassicae [1] is 0%. For the molecule `O=S(=O)(Nc1ccc(C(F)(F)F)cc1Cl)c1ccc(Cl)c(C(F)(F)F)c1`, the Activity is given as greater than 91% in the assay on Plasmodiophora brassicae [1], greater than 91% with Plasmodiophora brassicae [2] and 26% in the assay with Plasmodiophora brassicae [3]. Regarding `COC(=O)c1ccc(NS(=O)(=O)c2ccc(Cl)c(C(F)(F)F)c2)c(Cl)c1`, the Activity with Plasmodiophora brassicae [1] stood at 0%. In the case of `Cc1ccc(S(=O)(=O)Nc2ccc(Br)cc2)cc1`, the Activity in the assay with Plasmodiophora brassicae [1] amounted to 0%. In the case of `Cc1cc([N+](=O)[O-])ccc1NS(=O)(=O)c1ccc(Cl)c(Cl)c1`, the Activity is given as greater than 91% in the assay with Plasmodiophora brassicae [1], greater than 91% in the assay with Plasmodiophora brassicae [2] and 0% in the assay with Plasmodiophora brassicae [3].

For the molecule `N#Cc1cccc(S(=O)(=O)Nc2ccc(Cl)cc2Cl)c1`, in the assay on Plasmodiophora brassicae [1], the Activity was found to be 0%. Turning to `O=[N+]([O-])c1ccc(NS(=O)(=O)c2ccc([N+](=O)[O-])cc2)cc1`, the Activity in the assay on Plasmodiophora brassicae [1] and in the assay with Plasmodiophora brassicae [2] was 0% in each case. Consider `Cc1ccc(NS(=O)(=O)c2ccc(C)c([N+](=O)[O-])c2)c([N+](=O)[O-])c1`, for which, in the assay with Plasmodiophora brassicae [1], the Activity came out at 0%. In the case of `CCOC(=O)c1ccc(NS(=O)(=O)c2ccc(Cl)cc2)c(Cl)c1`, the Activity with Plasmodiophora brassicae [1] came out at 0%.

Take `O=S(=O)(Nc1ccc(C(F)(F)F)cc1Cl)c1ccc(Cl)cc1`: the Activity with Plasmodiophora brassicae [1] is recorded as greater than 91%; in the assay on Plasmodiophora brassicae [2] it was greater than 91%; in the assay on Plasmodiophora brassicae [3], 26%. As to `Cc1cc([N+](=O)[O-])ccc1NS(=O)(=O)c1cccc(C#N)c1`, the Activity in the assay with Plasmodiophora brassicae [1] and in the assay on Plasmodiophora brassicae [2] was 0% throughout.

Turning to `Cc1ccc(C)c(S(=O)(=O)Nc2ccc([N+](=O)[O-])cc2C)c1`, the results for the Activity with Plasmodiophora brassicae [1] and with Plasmodiophora brassicae [2] were greater than 91% and 26%, respectively.

Consider `O=[N+]([O-])c1ccc(NS(=O)(=O)c2cc(C(F)(F)F)ccc2Cl)c(Cl)c1`, for which the values for the Activity with Plasmodiophora brassicae [1], with Plasmodiophora brassicae [2] and in the assay with Plasmodiophora brassicae [3] were greater than 91%, greater than 91% and 51%, respectively.

For `Cc1ccc(S(=O)(=O)Nc2cc([N+](=O)[O-])ccc2Cl)cc1[N+](=O)[O-]`, the figures for the Activity in the assay on Plasmodiophora brassicae [1] and with Plasmodiophora brassicae [2] were 26% and 0%, respectively. `O=[N+]([O-])c1ccc(NS(=O)(=O)c2cc(Cl)c(Cl)cc2Cl)c(F)c1`: the Activity with Plasmodiophora brassicae [1] was greater than 91%; in the assay on Plasmodiophora brassicae [2], greater than 91%; in the assay on Plasmodiophora brassicae [3] it was 71%. `N#Cc1cccc(S(=O)(=O)Nc2ccc([N+](=O)[O-])cc2Cl)c1`: the Activity in the assay with Plasmodiophora brassicae [1] and in the assay on Plasmodiophora brassicae [2] was 0% each time. As to `O=[N+]([O-])c1ccc(NS(=O)(=O)c2ccccc2)c(Cl)c1`, the Activity in the assay on Plasmodiophora brassicae [1] is greater than 91%; with Plasmodiophora brassicae [2], 0%.

As for `Cc1ccc(S(=O)(=O)Nc2ccc(F)cc2)cc1`, in the assay with Plasmodiophora brassicae [1], the Activity worked out at 0%. `Cc1ccc([N+](=O)[O-])cc1S(=O)(=O)Nc1ccc([N+](=O)[O-])cc1Cl`: the Activity with Plasmodiophora brassicae [1] is reported as greater than 91%; in the assay with Plasmodiophora brassicae [2], greater than 91%; with Plasmodiophora brassicae [3], 0%.

Take `O=[N+]([O-])c1cc(Cl)c(NS(=O)(=O)c2ccccc2)c(Cl)c1`: the Activity is greater than 91% in the assay on Plasmodiophora brassicae [1] and 0% in the assay with Plasmodiophora brassicae [2].

`Cc1cc([N+](=O)[O-])ccc1NS(=O)(=O)c1cc(Cl)ccc1Cl`: the results for the Activity with Plasmodiophora brassicae [1], with Plasmodiophora brassicae [2] and in the assay with Plasmodiophora brassicae [3] were greater than 91%, greater than 91% and 51%, respectively. As to `O=[N+]([O-])c1ccc(NS(=O)(=O)c2ccc(Cl)cc2)c(Cl)c1`, the Activity in the assay with Plasmodiophora brassicae [1] and in the assay with Plasmodiophora brassicae [2] was greater than 91% throughout. Turning to `O=[N+]([O-])c1cccc(S(=O)(=O)Nc2ccc([N+](=O)[O-])cc2Cl)c1`, the Activity is 71% in the assay with Plasmodiophora brassicae [1] and 26% in the assay on Plasmodiophora brassicae [2].

Take `O=S(=O)(Nc1ccc(C(F)(F)F)cc1)c1ccc(Cl)c(Cl)c1`: the Activity is reported as greater than 91% with Plasmodiophora brassicae [1], 26% with Plasmodiophora brassicae [2] and 0% with Plasmodiophora brassicae [3]. `Cc1cc([N+](=O)[O-])ccc1NS(=O)(=O)c1cccc(C(F)(F)F)c1`: the Activity in the assay on Plasmodiophora brassicae [1] was greater than 91%; in the assay with Plasmodiophora brassicae [2], greater than 91%; with Plasmodiophora brassicae [3], 0%. `Cc1cc([N+](=O)[O-])ccc1NS(=O)(=O)c1ccc(C)c([N+](=O)[O-])c1`: the Activity in the assay on Plasmodiophora brassicae [1] and in the assay on Plasmodiophora brassicae [2] was 0% each time. Turning to `N#Cc1ccc(NS(=O)(=O)c2cccc(C(F)(F)F)c2)c(Cl)c1`, the values for the Activity with Plasmodiophora brassicae [1], with Plasmodiophora brassicae [2] and in the assay on Plasmodiophora brassicae [3] were greater than 91%, 51% and 0%, respectively. With `O=[N+]([O-])c1ccc(NS(=O)(=O)c2cccc(C(F)(F)F)c2)c(Cl)c1`, the Activity in the assay with Plasmodiophora brassicae [1], in the assay with Plasmodiophora brassicae [2] and in the assay with Plasmodiophora brassicae [3] was greater than 91% in each case.

Consider `O=[N+]([O-])c1ccc(NS(=O)(=O)c2ccc(Cl)c(Cl)c2)c(Cl)c1`, for which the values for the Activity in the assay on Plasmodiophora brassicae [1] and with Plasmodiophora brassicae [2] were greater than 91% and 26%, respectively. With `N#Cc1cccc(S(=O)(=O)Nc2ccc(C(F)(F)F)cc2)c1`, the Activity came to 26% in the assay on Plasmodiophora brassicae [1] and 0% with Plasmodiophora brassicae [2]. As to `Cc1ccc([N+](=O)[O-])cc1NS(=O)(=O)c1ccc(Cl)c([N+](=O)[O-])c1`, the Activity in the assay on Plasmodiophora brassicae [1] was 0%. Turning to `Cc1cc([N+](=O)[O-])ccc1NS(=O)(=O)c1ccc(Cl)cc1`, the values for the Activity with Plasmodiophora brassicae [1] and in the assay on Plasmodiophora brassicae [2] were greater than 91% and 0%, respectively. Taken in the same sequence, the figures for `CCOC(=O)c1ccc(NS(=O)(=O)c2cccc(C(F)(F)F)c2)cc1` were 0% and 0%. In the case of `N#Cc1cccc(S(=O)(=O)Nc2ccc(C(F)(F)F)cc2Cl)c1`, the results for the Activity in the assay with Plasmodiophora brassicae [1] and with Plasmodiophora brassicae [2] were 51% and 0%, respectively. Consider `Cc1ccc(S(=O)(=O)Nc2ccc(F)c([N+](=O)[O-])c2)cc1[N+](=O)[O-]`, for which the figures for the Activity in the assay with Plasmodiophora brassicae [1] and with Plasmodiophora brassicae [2] were 51% and 26%, respectively. Take `COC(=O)c1ccc(NS(=O)(=O)c2ccc(Cl)c(Cl)c2)c(Cl)c1`: the Activity in the assay on Plasmodiophora brassicae [1] amounted to 0%. As for `O=[N+]([O-])c1cccc(NS(=O)(=O)c2ccccc2[N+](=O)[O-])c1`, the Activity in the assay with Plasmodiophora brassicae [1] is 0%. As to `O=[N+]([O-])c1cccc(NS(=O)(=O)c2cccc([N+](=O)[O-])c2)c1`, in the assay with Plasmodiophora brassicae [1], the Activity turned out to be 0%. With `O=S(=O)(Nc1ccc(C(F)(F)F)cc1)c1cccc(C(F)(F)F)c1`, the Activity in the assay on Plasmodiophora brassicae [1] is reported as 0%.

Regarding `N#Cc1ccc(NS(=O)(=O)c2ccc(Cl)c(Cl)c2)cc1`, the Activity in the assay with Plasmodiophora brassicae [1] stood at 0%. With `N#Cc1ccc(NS(=O)(=O)c2cccc(C(F)(F)F)c2)cc1`, the Activity in the assay with Plasmodiophora brassicae [1] is given as 0%. Regarding `CCCOC(=O)c1ccc(NS(=O)(=O)c2cccc(C(F)(F)F)c2)cc1`, the Activity in the assay on Plasmodiophora brassicae [1] and in the assay with Plasmodiophora brassicae [2] was 0% each time. For the molecule `O=[N+]([O-])c1ccc(S(=O)(=O)Nc2cccc([N+](=O)[O-])c2)cc1`, the Activity with Plasmodiophora brassicae [1] was found to be 0%. As to `CN(C)C(=O)c1ccc(NS(=O)(=O)c2cccc(C(F)(F)F)c2)cc1`, the Activity in the assay with Plasmodiophora brassicae [1] is 0%.

For the molecule `Cc1ccc(S(=O)(=O)Nc2c(C)cccc2[N+](=O)[O-])cc1[N+](=O)[O-]`, the figures for the Activity in the assay with Plasmodiophora brassicae [1] and in the assay on Plasmodiophora brassicae [2] were 26% and 0%, respectively. In the case of `O=S(=O)(Nc1ccccc1Cl)c1cc(C(F)(F)F)ccc1Cl`, in the assay on Plasmodiophora brassicae [1], the Activity is reported as 0%. In the case of `Cc1ccc(NS(=O)(=O)c2ccc([N+](=O)[O-])cc2)c([N+](=O)[O-])c1`, the Activity with Plasmodiophora brassicae [1] is on record as 0%.

Regarding `Cc1ccc([N+](=O)[O-])cc1NS(=O)(=O)c1ccc([N+](=O)[O-])cc1`, in the assay with Plasmodiophora brassicae [1], the Activity is recorded as 0%. For the molecule `O=[N+]([O-])c1ccc(S(=O)(=O)Nc2ccc([N+](=O)[O-])cc2Cl)cc1`, the Activity with Plasmodiophora brassicae [1] and with Plasmodiophora brassicae [2] was 0% throughout.

Consider `Cc1ccc(S(=O)(=O)Nc2ccc(C(F)(F)F)cc2Cl)cc1`, for which the figures for the Activity in the assay with Plasmodiophora brassicae [1] and with Plasmodiophora brassicae [2] were 51% and 0%, respectively. In the case of `CN(C)C(=O)c1ccc(NS(=O)(=O)c2ccc(Cl)c(Cl)c2)c(Cl)c1`, the Activity in the assay on Plasmodiophora brassicae [1] is given as 0%. `CN(C)C(=O)c1ccc(NS(=O)(=O)c2cccc(C(F)(F)F)c2)c(Cl)c1`: the Activity in the assay with Plasmodiophora brassicae [1] is on record as 0%.

Consider `O=[N+]([O-])c1ccc(NS(=O)(=O)c2ccccc2[N+](=O)[O-])cc1`, for which the Activity in the assay on Plasmodiophora brassicae [1] amounted to 51%; in the assay on Plasmodiophora brassicae [2], 0%. With `Cc1ccc(S(=O)(=O)Nc2ccc([N+](=O)[O-])cc2C)cc1`, the Activity in the assay on Plasmodiophora brassicae [1] and in the assay with Plasmodiophora brassicae [2] was 0% in each case. Take `Cc1cc([N+](=O)[O-])ccc1NS(=O)(=O)c1ccc([N+](=O)[O-])cc1`: the Activity in the assay with Plasmodiophora brassicae [1] and in the assay on Plasmodiophora brassicae [2] was 0% in each case.

In the case of `COc1ccc([N+](=O)[O-])cc1NS(=O)(=O)c1ccccc1[N+](=O)[O-]`, the Activity in the assay on Plasmodiophora brassicae [1] was found to be 0%. For the molecule `COc1ccc([N+](=O)[O-])cc1NS(=O)(=O)c1ccc([N+](=O)[O-])cc1`, the Activity in the assay on Plasmodiophora brassicae [1] is 0%.
